Assays:
AC711 = test: cell count proliferation assay; assay type: cell-based, mouse; set-up: key: +: A positive scoring in these Tables represent cells in which a 2-5 and a 10-40 fold reduction in the total number of cells relative to the control untreated cells was observed after 3 and 7 days of culture with F16, respectively; conditions: AC711, Ras, breast; F16 3 μM, cells counted after 3 and 7 days
From the text: (§1) The following panel of mouse tumor cell lines derived from Neu, Ras and Myc transgenic mice and panel of human cancer cell lines were used: a) Neu-initiated mouse tumor cell lines NF980, NF324-2A, NF324-1B, SMF, NAF, Neu4145, n-Neu, Ras-initiated mouse tumor cell lines SH1,1, AC236, AC711, AC816, ACp53^−#1, ACp53^−4782, AC222, AC99, AC260, ACp53^−#19, ACp53^−#16, AC/Balb6.6, AC/Balb14, AC/Balb12 and Myc-initiated mouse tumor cell lines 16MB9a, 13MA1a; and b) human breast tumor cell lines MDA-MB231, MDA-MB435, MDA-MB436, MDA-MB453, MDA-MB-468, SKBR-3, MCF-7, T47D, ZR75; human prostate cancer cell lines LNCaP, PC-3, DU145 and the human ovarian cancer cell line SKOV-3.
(§2) For each cell line, 10^5 cells were seeded in 4×6 well plates. Next day, F16 was added at 3 μM to the medium of 2 of the plates, while the other two were left untreated (control). Cells were counted 3 days and 7 days after initiation of treatment.
(§3) A positive scoring in these Tables represent cells in which a 2-5 and a 10-40 fold reduction in the total number of cells relative to the control untreated cells was observed after 3 and 7 days of culture with F16, respectively.

AC816 = test: cell count proliferation assay; assay type: cell-based, mouse; set-up: key: +: A positive scoring in these Tables represent cells in which a 2-5 and a 10-40 fold reduction in the total number of cells relative to the control untreated cells was observed after 3 and 7 days of culture with F16, respectively; conditions: AC816, Ras, breast; F16 3 μM, cells counted after 3 and 7 days
From the text: as §1, §2, §3

NF324-2A = test: cell count proliferation assay; assay type: cell-based, mouse; set-up: key: +: A positive scoring in these Tables represent cells in which a 2-5 and a 10-40 fold reduction in the total number of cells relative to the control untreated cells was observed after 3 and 7 days of culture with F16, respectively; conditions: Neu, breast, F16 3 μM, cells counted after 3 and 7 days
From the text: as §1, §2, §3

SH1.1 = test: cell count proliferation assay; assay type: cell-based, mouse; set-up: key: +: A positive scoring in these Tables represent cells in which a 2-5 and a 10-40 fold reduction in the total number of cells relative to the control untreated cells was observed after 3 and 7 days of culture with F16, respectively; conditions: SH1.1, Ras, breast; F16 3 μM, cells counted after 3 and 7 days
From the text: as §1, §2, §3

BT474 = test: cell count proliferation assay; assay type: cell-based; set-up: key: +: A positive scoring in these Tables represent cells in which a 2-5 and a 10-40 fold reduction in the total number of cells relative to the control untreated cells was observed after 3 and 7 days of culture with F16, respectively; conditions: BT474, human breast; F16 3 μM, cells counted after 3 and 7 days
A6 cells = test: apoptosis time course (DNA fragmentation, propidium iodide staining, cytochrome c release); assay type: cell-based, mouse; conditions: 3 μM F16, 48, 60 and 72 hr, FIG. 6
Description: The DNA fragmentation assay was conducted by isolating DNA from 1×10^6 of untreated or F16 treated for 48, 60 and 72 hr using Suicide-Track TM (Oncogene) according to manufacturer's procedure. Samples were resolved by agarose gel electrophoresis and ethidium-bromide stained. Cytochrome c release was measured by immunofluorescence as follows. Untreated or F16-treated A6 cells were washed and fixed with ice-cold 3.7% paraformaldehyde at RT, permeabilized for with ice-cold 0.01% (v/v) Nonidet P-40 for 20 min and incubated with 0.5% BSA/PB. Immunodetection was performed with monoclonal anti-cytochrome c antibody (PharMingen) and secondary anti-mouse-TRITC conjugated antibody. Cells were photographed under Axioskop using a Spot Camera (Diagnostic Instruments).

16MB9a = test: uptake/retention of F16 by fluorescence microscopy; assay type: cell-based, mouse; conditions: 3 μM F16, 24 hours
Description: (§4) The following cell lines were used in this Example: EpH4-A6 (Neu^T); EpH4-EV; Neu-initiated mouse tumor cell lines NF980, NAF and nNeu; Ras-initated tumor cell lines SH1.1 and AC816; a Myc-initiated tumor cell line 16MB9a; and normal mammary epethileal cells HC11, NuMg and EpH4. The cells were grown on 60 mm plates and incubated with medium alone or medium containing 3 μM F16 for 24 hours at 37° C. The fluorescence signal of F16 was visualized under inverted microscope Axiovert (Zeiss) using a standard fluorescein filter set. Cells were photographed using a digital camera D1 (Nikon).

EpH4-A6 cells = test: uptake/retention of F16 by fluorescence microscopy; assay type: cell-based, mouse; conditions: 3 μM F16, 24 hours
Description: as §4

EpH4-EV cells = test: uptake/retention of F16 by fluorescence microscopy; assay type: cell-based, mouse; conditions: 3 μM F16, 24 hours
Description: as §4

[1] = system: ras- and neu-initiated tumor cell lines; test: uptake/retention of F16 by fluorescence microscopy; assay type: cell-based, mouse; conditions: 3 μM F16, 24 hours
Description: as §4

[2] = system: isolated mouse liver mitochondria; test: swelling of isolated mitochondria (permeability transition pore opening); assay type: biochemical; conditions: 0.5 mg/ml mitochondria
Description: Mitochondria were isolated from liver of Balb/c7 mice by standard differential centrifugation, and resuspended in isolation buffer (0.2 M sucrose, 10 mM Tris-MOPS pH 7.4, 0.1 mM EGTA-Tris, 0.1% delipidated BSA) (Costantini et al. (1995) Toxicology (99) 77-88). Protein concentration was determined by Bradford assay. For swelling determination, changes in side scatter at 545±2.5 nm of a 0.5 mg/ml suspension of mitochondria in experimental buffer (125 mM KCl, 10 mM Tris-MOPS pH 7.4, 1 mM Pi, 5 mM glutamate, 2.5 mM malate, 10 μM EGTA-Tris, pH 7.4) were monitored by using LS-50B spectrofluorimeter. […] All reactions were performed at 25° C. and the instrument was equipped with magnetic stirring.

C[n+]1ccc(/C=C/c2c[nH]c3ccccc23)cc1.[I-] [F16]
F16 response (AC711): + | F16 response (AC816): + | F16 response (NF324-2A): + | F16 response (SH1.1): + | F16 response (BT474): + | cell death on prolonged incubation (A6 cells): increased cell death | uptake/retention of F16 (fluorescence) (16MB9a): does not show fluoresence | uptake/retention of F16 (fluorescence) (EpH4-A6 cells): very intense fluorescent green punctuated staining | uptake/retention of F16 (fluorescence) (EpH4-EV cells): do not show any uptake/retention | uptake/retention of F16 (fluorescence) [1]: very intense fluorescent green punctuated staining | swelling of purified mitochondria [2]: swelling of purified mitochondria in a dose-dependent fashion
